Patent publication US11504382B2, “Tricyclic inhibitors of Hepatitis B virus” (Antios Therapeutics, Inc., priority 2018, dated 2022)
Read-outs that look alike come from different tables or passages of the source.

System: HBV
Assay: HBV inhibition assay in HepAD38 cells (extracellular HBV DNA by direct qPCR)
Assay type: cell-based, Hepatitis B virus
Settings: 96 hours; for EC50: 8-point dose-response curve, read-out: HBV inh EC50; for inhibition at 1 µM / inhibition at 0.1 µM / inhibition at 0.05 µM: relative to non-treated reference, read-out: Anti HBV Activity (conc μM)

CCOC(=O)N1CC2NS(=O)(=O)c3cn(C)c(C(=O)Nc4cc(F)c(F)c(F)c4)c3OCC2(C)C1 (single isomer, unassigned) [Example E91, Ethyl 7,10a-dimethyl-8-((3,4,5-trifluorophenyl)carbamoyl)-3a,4,10,10a-tetrahydro-1H,7H-dipyrrolo[3,4-b:3′,4′-f][1,4,5]oxathiazocine-2(3H)-carboxylate 5,5-dioxide (Chiral 3aS,10aS or 3aR,10aR - Stereochemistry unknown)]
EC50: < 1 µM

CCOC(=O)N1CC2NS(=O)(=O)c3cn(C)c(C(=O)Nc4cc(F)c(F)c(F)c4)c3OCC2(C)C1 (single isomer, unassigned) [Example E92, Ethyl 7,10a-dimethyl-8-((3,4,5-trifluorophenyl)carbamoyl)-3a,4,10,10a-tetrahydro-1H,7H-dipyrrolo[3,4-b:3′,4′-f][1,4,5]oxathiazocine-2(3H)-carboxylate 5,5-dioxide (Chiral 3aS,10aS or 3aR,10aR - Stereochemistry unknown)]
EC50: < 1 µM

CCOC(=O)N1CC2NS(=O)(=O)c3cn(C)c(C(=O)Nc4ccc(F)c(C)c4)c3OCC2(C)C1 (single isomer, unassigned) [Example E93, Ethyl 8-((4-fluoro-3-methylphenyl)carbamoyl)-7,10a-dimethyl-3a,4,10,10a-tetrahydro-1H,7H-dipyrrolo[3,4-b:3′,4′-f][1,4,5]oxathiazocine-2(3H)-carboxylate 5,5-dioxide (Chiral 3aS,10aS or 3aR,10aR - Stereochemistry unknown)]
EC50: < 1 µM

CCOC(=O)N1CC2NS(=O)(=O)c3cn(C)c(C(=O)Nc4ccc(F)c(C)c4)c3OCC2(C)C1 (single isomer, unassigned) [Example E94, Ethyl 8-((4-fluoro-3-methylphenyl)carbamoyl)-7,10a-dimethyl-3a,4,10,10a-tetrahydro-1H,7H-dipyrrolo[3,4-b:3′,4′-f][1,4,5]oxathiazocine-2(3H)-carboxylate 5,5-dioxide(Chiral 3aS,10aS or 3aR,10aR - Stereochemistryunknown)]
EC50: < 1 µM

Cc1nnc(C(=O)N2CC3NS(=O)(=O)c4cn(C)c(C(=O)Nc5ccc(F)c(C)c5)c4OCC3(C)C2)o1 (single isomer, unassigned) [Example E95, N-(4-fluoro-3-methylphenyl)-7,10a-dimethyl-2-(5-methyl-1,3,4-oxadiazole-2-carbonyl)-2,3,3a,4,10,10a-hexahydro-1H,7H-dipyrrolo[3,4-b:3′,4′-f][1,4,5]oxathiazocine-8-carboxamide 5,5-dioxide (Chiral 3aS,10aS or 3aR,10aR - Stereochemistry unknown)]
EC50: < 1 µM

Cc1nnc(C(=O)N2CC3NS(=O)(=O)c4cn(C)c(C(=O)Nc5ccc(F)c(C)c5)c4OCC3(C)C2)o1 (single isomer, unassigned) [Example E96, N-(4-fluoro-3-methylphenyl)-7,10a-dimethyl-2-(5-methyl-1,3,4-oxadiazole-2-carbonyl)-2,3,3a,4,10,10a-hexahydro-1H,7H-dipyrrolo[3,4-b:3′,4′-f][1,4,5]oxathiazocine-8-carboxamide 5,5-dioxide (Chiral 3aS,10aS or 3aR,10aR - Stereochemistry unknown)]
EC50: < 1 µM

Cc1cc(NC(=O)c2c3c(cn2C)S(=O)(=O)N[C@@H]2CN(C(=O)OC(C)(C)C)C[C@H]2CO3)ccc1F (single isomer, unassigned) [Example E151]
EC50 (Hepatitis B virus): < 1 µM

Cc1cc(NC(=O)c2c3c(cn2C)S(=O)(=O)N[C@H]2CN(C(=O)OC(C)(C)C)C[C@@H]2CO3)ccc1F (single isomer, unassigned) [Example E152]
EC50 (Hepatitis B virus): < 1 µM

Cc1nnc(C(=O)N2C[C@H]3COc4c(cn(C)c4C(=O)Nc4ccc(F)c(C)c4)S(=O)(=O)N[C@@H]3C2)o1 (single isomer, unassigned) [Example E153]
EC50 (Hepatitis B virus): < 1 µM

Cc1nnc(C(=O)N2C[C@@H]3COc4c(cn(C)c4C(=O)Nc4ccc(F)c(C)c4)S(=O)(=O)N[C@H]3C2)o1 (single isomer, unassigned) [Example E154]
EC50 (Hepatitis B virus): < 1 µM

Cn1cc2c(c1C(=O)Nc1ccc(F)c(F)c1)OCC1CCCCN1S2(=O)=O (stereo not shown) [Example E1, N-(3,4-difluorophenyl)-2-methyl-6,7,8,9,9a,10-hexahydro-2H-pyrido[1,2-e]pyrrolo[3,4-b][1,4,5]oxathiazepine-1-carboxamide 4,4-dioxide]
inhibition at 1 µM (Hepatitis B virus): < 50% | EC50 (Hepatitis B virus): > 1 µM

Cn1cc2c(c1C(=O)Nc1ccc(F)c(F)c1)NCC1CCCCN1S2(=O)=O (stereo not shown) [Example E2, N-(3,4-difluorophenyl)-2-methyl-2,6,7,8,9,9a,10,11-octahydropyrido[1,2-b]pyrrolo[3,4-f][1,2,5]thiadiazepine-1-carboxamide 4,4-dioxide]
inhibition at 1 µM (Hepatitis B virus): < 50%

Cn1cc2c(c1C(=O)Nc1ccc(F)c(F)c1)OCC1CCN1S2(=O)=O (stereo not shown) [Example E3, N-(3,4-difluorophenyl)-2-methyl-6,7,7a,8-tetrahydro-2H-azeto[1,2-e]pyrrolo[3,4-b][1,4,5]oxathiazepine-1-carboxamide 4,4-dioxide]
inhibition at 1 µM (Hepatitis B virus): > 50% | EC50 (Hepatitis B virus): < 1 µM

Cn1cc2c(c1C(=O)Nc1ccc(F)c(F)c1)OC[C@H]1C[C@H](C1)NS2(=O)=O [Example E5]
inhibition at 1 µM (Hepatitis B virus): < 50%

Cn1cc2c(c1C(=O)Nc1ccc(F)c(F)c1)OC[C@@H]1CCC[C@H]1NS2(=O)=O [Example E8, (5aR,8aR)—N-(3,4-difluorophenyl)-2-methyl-5a,6,7,8,8a,9-hexahydro-2H,5H-cyclopenta[f]pyrrolo[3,4-b][1,4,5]oxathiazocine-1-carboxamide 4,4-dioxide]
EC50 (Hepatitis B virus): < 1 µM

Cn1cc2c(c1C(=O)Nc1ccc(F)c(F)c1)OC[C@H]1CCC[C@@H]1NS2(=O)=O [Example E9, (5aS,8aS)—N-(3,4-difluorophenyl)-2-methyl-5a,6,7,8,8a,9-hexahydro-2H,5H-cyclopenta[f]pyrrolo[3,4-b][1,4,5]oxathiazocine-1-carboxamide 4,4-dioxide]
EC50 (Hepatitis B virus): < 1 µM

CCOC(=O)N1CC[C@H]2NS(=O)(=O)c3cn(C)c(C(=O)Nc4ccc(F)c(F)c4)c3OC[C@H]21 [Example E27, Ethyl (3aR,10aS)-8-((3,4-difluorophenyl)carbamoyl)-7-methyl-2,3,3a,4,10,10a-hexahydro-1H,7H-dipyrrolo[3,4-b:3′,2′-f][1,4,5]oxathiazocine-1-carboxylate 5,5-dioxide]
inhibition at 0.1 µM (Hepatitis B virus): < 50%

Cn1cc2c(c1C(=O)Nc1ccc(F)c(F)c1)OCC1(C)CCCC1NS2(=O)=O (stereo not shown) [Example E29, N-(3,4-difluorophenyl)-2,8a-dimethyl-5a,6,7,8,8a,9-hexahydro-2H,5H-cyclopenta[f]pyrrolo[3,4-b][1,4,5]oxathiazocine-1-carboxamide 4,4-dioxide]
inhibition at 0.1 µM (Hepatitis B virus): < 50%

Cn1cc2c(c1C(=O)Nc1cc(F)c(F)c(F)c1)OC[C@@H]1CNC[C@@H]1NS2(=O)=O [Example E36, 7-methyl-N-(3,4,5-trifluorophenyl)-2,3,3a,4,10,10a-hexahydro-1H,7H-dipyrrolo[3,4-b:3′,4′-f][1,4,5]oxathiazocine-8-carboxamide 5,5-dioxide (3aR,10aR)]
inhibition at 0.1 µM (Hepatitis B virus): < 50%

Cc1cc(NC(=O)c2c3c(cn2C)S(=O)(=O)NC2CNCC2CO3)ccc1F (stereo not drawn) [Example E47, cis-N-(4-fluoro-3-methylphenyl)-7-methyl-2,3,3a,4,10,10a-hexahydro-1H,7H-dipyrrolo[3,4-b:3′,4′-f][1,4,5]oxathiazocine-8-carboxamide 5,5-dioxide hydroiodide]
inhibition at 0.05 µM (Hepatitis B virus): > 50% | EC50 (Hepatitis B virus): < 1 µM

Cc1cc(NC(=O)c2c3c(cn2C)S(=O)(=O)NC2CN(c4cccnc4)CC2CO3)ccc1F (stereo not drawn) [Example E48, cis-N-(4-fluoro-3-methylphenyl)-7-methyl-2-(pyridin-3-yl)-2,3,3a,4,10,10a-hexahydro-1H,7H-dipyrrolo[3,4-b:3′,4′-f][1,4,5]oxathiazocine-8-carboxamide 5,5-dioxide]
EC50 (Hepatitis B virus): < 1 µM

Cc1cc(NC(=O)c2c3c(cn2C)S(=O)(=O)NC2CN(c4nnco4)CC2CO3)ccc1F (stereo not drawn) [Example E49, cis-N-(4-fluoro-3-methylphenyl)-7-methyl-2-(1,3,4-oxadiazol-2-yl)-2,3,3a,4,10,10a-hexahydro-1H,7H-dipyrrolo[3,4-b:3′,4′-f][1,4,5]oxathiazocine-8-carboxamide 5,5-dioxide]
EC50 (Hepatitis B virus): < 1 µM

Cc1nnc(C(=O)N2CC3COc4c(cn(C)c4C(=O)Nc4cc(F)c(F)c(F)c4)S(=O)(=O)NC3C2)o1 (stereo not drawn) [Example E51, cis-7-methyl-2-(5-methyl-1,3,4-oxadiazole-2-carbonyl)-N-(3,4,5-trifluorophenyl)-2,3,3a,4,10,10a-hexahydro-1H,7H-dipyrrolo[3,4-b:3′,4′-f][1,4,5]oxathiazocine-8-carboxamide 5,5-dioxide]
inhibition at 0.05 µM (Hepatitis B virus): > 50% | EC50 (Hepatitis B virus): < 1 µM

Cc1cc(C(=O)N2CC3COc4c(cn(C)c4C(=O)Nc4ccc(F)c(C)c4)S(=O)(=O)NC3C2)no1 (stereo not drawn) [Example E52, cis-N-(4-fluoro-3-methylphenyl)-7-methyl-2-(5-methylisoxazole-3-carbonyl)-2,3,3a,4,10,10a-hexahydro-1H,7H-dipyrrolo[3,4-b:3′,4′-f][1,4,5]oxathiazocine-8-carboxamide 5,5-dioxide]
inhibition at 0.05 µM (Hepatitis B virus): > 50% | EC50 (Hepatitis B virus): < 1 µM

Cc1cc(NC(=O)c2c3c(cn2C)S(=O)(=O)NC2CN(C(=O)c4ccc(O)nc4)CC2CO3)ccc1F (stereo not drawn) [Example E53, cis-N-(4-fluoro-3-methylphenyl)-2-(6-hydroxynicotinoyl)-7-methyl-2,3,3a,4,10,10a-hexahydro-1H,7H-dipyrrolo[3,4-b:3′,4′-f][1,4,5]oxathiazocine-8-carboxamide 5,5-dioxide]
inhibition at 0.1 µM (Hepatitis B virus): < 50%

Cc1cc(NC(=O)c2c3c(cn2C)S(=O)(=O)NC2CN(C(=O)c4cccnc4)CC2CO3)ccc1F (stereo not drawn) [Example E54, cis-N-(4-fluoro-3-methylphenyl)-7-methyl-2-nicotinoyl-2,3,3a,4,10,10a-hexahydro-1H,7H-dipyrrolo[3,4-b:3′,4′-f][1,4,5]oxathiazocine-8-carboxamide 5,5-dioxide]
inhibition at 0.1 µM (Hepatitis B virus): > 50%
